Measured values taken from US20240366809A1, “INHIBITOR OF PROSTATE SPECIFIC MEMBRANE ANTIGEN AND PHARMACEUTICAL USE THEREOF” (TIANJIN HENGRUI MEDICINE CO., LTD., priority 2021, published 2024).

What was measured:
[1] = molecular target: T1, rhPSMA (Homo sapiens (Human), UniProt Q04609); assay: Tests for inhibitory activity against PSMA (Test Example 1); assay type: biochemical; conditions: rhPSMA 50 ng/well, substrate N-Acetyl-Asp-Glu, 37° C. 1 h
Procedure: • 1. Multifunctional microplate reader (SPARK, TECAN) • 2. rhPSMA (R&D, 4234-ZN) • 3. N-Acetyl-Asp-Glu (Sigma, A5930) • 4. OPA (Sigma, P0657)
PSMA inhibitors can bind to the enzyme PSMA to prevent the enzyme PSMA from decomposing the substrate N-Acetyl-Asp-Glu. In this experiment, the extent to which the substrate was decomposed and the resulting ultraviolet absorption changes were measured to evaluate the capacities of the PSMA inhibitors to bind to the enzyme PSMA, and the activity of the compounds was evaluated with IC50 values.
(§1) Buffer 1 (50 mM HEPES, 0.1 M NaCl, pH 7.5) was used to prepare a 0.4 μg/mL rhPSMA solution and a 40 μM solution of the substrate N-Acetyl-Asp-Glu. rhPSMA was mixed with the small molecules to be tested in a 96-well plate, with a constant rhPSMA content of 50 ng/well maintained. Meanwhile, the small molecules were step-wise diluted to final concentrations of 1 μM, 100 nM, 33.3 nM, 11.1 nM, 3.7 nM, 1.2 nM, 0.41 nM, 0.137 nM, 0.045 nM, and 0 nM. In addition, a positive control was set up using PSMA-617. The rhPSMA-small molecules were taken at 40 μL/well and well mixed with the 40 μM solution of the substrate N-Acetyl-Asp-Glu (40 μL/well). The mixtures were incubated at 37° C. in the dark for 1 h, were heated at 70° C. for 5 min to quench the reactions, and were cooled to room temperature. Buffer 2 (0.2 M NaOH, 0.1% beta-Mercaptoethanol) was used to prepare a 15 mM OPA solution. The OPA solution was added to the reaction systems at 80 μL/well and well mixed, and then the plate was incubated at room temperature for 10 min. The mixtures were taken at 100 μL/well and added to a 96-well Flat Black. With the excitation wavelength set to 330 nm and the emission wavelength to 465 nm, the intensity of signals was measured. IC50 values were obtained from dose-response curves.
The capacities of the compounds of the present disclosure to bind to the enzyme GCPII can be measured through the assay described above.

[2] = molecular target: T1, rhPSMA; assay: Affinity assays using enzyme activity method (Test Example 2); assay type: biochemical
Procedure: as §1

T1 sequence (Q04609 44-750): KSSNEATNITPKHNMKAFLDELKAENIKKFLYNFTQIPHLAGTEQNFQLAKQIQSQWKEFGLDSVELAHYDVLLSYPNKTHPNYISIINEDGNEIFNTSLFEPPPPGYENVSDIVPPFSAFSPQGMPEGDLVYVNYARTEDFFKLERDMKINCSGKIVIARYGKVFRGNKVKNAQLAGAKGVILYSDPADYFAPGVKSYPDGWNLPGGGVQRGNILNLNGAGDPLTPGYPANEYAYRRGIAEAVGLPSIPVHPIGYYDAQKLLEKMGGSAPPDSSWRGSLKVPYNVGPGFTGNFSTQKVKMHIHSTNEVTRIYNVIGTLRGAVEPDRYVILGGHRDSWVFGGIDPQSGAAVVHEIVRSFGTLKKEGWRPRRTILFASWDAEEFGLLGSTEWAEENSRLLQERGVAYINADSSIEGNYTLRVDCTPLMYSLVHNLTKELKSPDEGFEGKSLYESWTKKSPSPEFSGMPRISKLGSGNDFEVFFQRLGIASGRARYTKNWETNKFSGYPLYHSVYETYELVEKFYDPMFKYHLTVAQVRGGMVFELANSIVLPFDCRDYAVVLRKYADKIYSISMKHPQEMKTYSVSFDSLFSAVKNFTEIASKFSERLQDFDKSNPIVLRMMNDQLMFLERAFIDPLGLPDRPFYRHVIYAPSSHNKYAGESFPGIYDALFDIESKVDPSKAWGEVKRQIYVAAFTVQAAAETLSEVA

SMILES: NCc1cnn([C@@H](Cc2ccccc2)C(=O)NCCCC[C@H](NC(=O)N[C@@H](CCC(=O)O)C(=O)O)C(=O)O)c1
- IC50 [1]: 143 nM

SMILES: N[C@@H](Cc1ccncc1)C(=O)NCCCC[C@H](NC(=O)N[C@@H](CCC(=O)O)C(=O)O)C(=O)O
- IC50 [1]: 178 nM

SMILES: O=C(O)CC[C@H](NC(=O)N[C@@H](CCCCNC(=O)[C@H](Cc1ccc2ccccc2c1)NC(=O)C1CC12CCNCC2)C(=O)O)C(=O)O (some centres unmarked)
- IC50 [1]: 2.4 nM

SMILES: O=C(O)CC[C@H](NC(=O)N[C@@H](CCCCNC(=O)[C@H](Cc1ccc2ccccc2c1)NC(=O)N1CCC(CNC(=O)CN2CCN(CC(=O)O)CCN(CC(=O)O)CCN(CC(=O)O)CC2)CC1)C(=O)O)C(=O)O
- IC50 [1]: 4.13 nM

SMILES: O=C(O)CC[C@H](NC(=O)N[C@@H](CCCCNC(=O)[C@H](Cc1ccc2ccccc2c1)NC(=O)[C@H]1CC[C@H](CNC(=O)CN2CCN(CC(=O)O)CCN(CC(=O)O)CCN(CC(=O)O)CC2)CC1)C(=O)O)C(=O)O [PSMA-617, reference compound]
- Ratio to PSMA-617 ([2]; ratio of IC50 values): 1.00
- IC50 ([2]; rhPSMA 50 ng/well, substrate N-Acetyl-Asp-Glu, 37° C. 1 h): 1.65 nM
- IC50 [1]: 2.36 nM

SMILES: O=C(O)CC[C@H](NC(=O)N[C@@H](CCCCNC(=O)[C@H](Cc1ccc2ccccc2c1)NC(=O)[C@H]1CC[C@@]2(CC1)CN(C(=O)CN1CCN(CC(=O)O)CCN(CC(=O)O)CCN(CC(=O)O)CC1)CCO2)C(=O)O)C(=O)O [drawing 156]
- IC50 [1]: 1.52 nM
